For eleven molecules, Ki and IC50 results are on record in patent US10793563B2, “GCN2 inhibitors and uses thereof” (Merck Patent GmbH, priority 2018, dated 2020).

One assay deals with GCN2 kinase (Homo sapiens (Human), UniProt Q9P2K8). Put plainly: GCN2 Enzyme Inhibition Assay (Transcreener ADP2 fluorescence polarization). Format: biochemical. The settings on record: 280 μM ATP, 200 μM (RS)7 peptide, 4 nM GCN2, 25° C.; for Ki: Ki(app). The method in brief: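 Transcreener ADP2 fluorescence polarization detection of ADP from 4 nM GCN2 with (RS)7 substrate in 25 mM Tris-HCl pH 7.5, 50 mM NaCl, 10 mM MgCl2, 1 mM DTT. Compound pre-incubated with enzyme 10 min at 25 °C; reaction started by ATP, run 1 h at 25 °C. IC50 and Ki(app) by tight-binding fit.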

For assay [1], the target named is intracellular GCN2 (phosphorylation of the GCN2 substrate eIF2α) (Homo sapiens (Human), UniProt Q9P2K8). Put plainly: GCN2 Cellular Inhibition Assay (AlphaScreen SureFire P-eIF2α Ser51, borrelidin-treated U2OS cells). The format is cell-based. The following applies: 10 μM borrelidin, 1 h, phosphorylated eIF2α Ser51, read-out: GCN2 Biomarker (IC50). The method in brief: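 U2OS cells adhered overnight, then given compound (top 40 μM, 4-fold serial dilutions) plus 10 μM borrelidin for 1 h at 37 °C. Lysates assayed for eIF2α phospho-Ser51 by AlphaScreen SureFire; % inhibition versus borrelidin-only wells.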
Background: Bead proximity is the source of the signal in Alpha formats.

intracellular GCN2 (phosphorylation of the GCN2 substrate eIF2α), sequence (Q9P2K8 whole entry): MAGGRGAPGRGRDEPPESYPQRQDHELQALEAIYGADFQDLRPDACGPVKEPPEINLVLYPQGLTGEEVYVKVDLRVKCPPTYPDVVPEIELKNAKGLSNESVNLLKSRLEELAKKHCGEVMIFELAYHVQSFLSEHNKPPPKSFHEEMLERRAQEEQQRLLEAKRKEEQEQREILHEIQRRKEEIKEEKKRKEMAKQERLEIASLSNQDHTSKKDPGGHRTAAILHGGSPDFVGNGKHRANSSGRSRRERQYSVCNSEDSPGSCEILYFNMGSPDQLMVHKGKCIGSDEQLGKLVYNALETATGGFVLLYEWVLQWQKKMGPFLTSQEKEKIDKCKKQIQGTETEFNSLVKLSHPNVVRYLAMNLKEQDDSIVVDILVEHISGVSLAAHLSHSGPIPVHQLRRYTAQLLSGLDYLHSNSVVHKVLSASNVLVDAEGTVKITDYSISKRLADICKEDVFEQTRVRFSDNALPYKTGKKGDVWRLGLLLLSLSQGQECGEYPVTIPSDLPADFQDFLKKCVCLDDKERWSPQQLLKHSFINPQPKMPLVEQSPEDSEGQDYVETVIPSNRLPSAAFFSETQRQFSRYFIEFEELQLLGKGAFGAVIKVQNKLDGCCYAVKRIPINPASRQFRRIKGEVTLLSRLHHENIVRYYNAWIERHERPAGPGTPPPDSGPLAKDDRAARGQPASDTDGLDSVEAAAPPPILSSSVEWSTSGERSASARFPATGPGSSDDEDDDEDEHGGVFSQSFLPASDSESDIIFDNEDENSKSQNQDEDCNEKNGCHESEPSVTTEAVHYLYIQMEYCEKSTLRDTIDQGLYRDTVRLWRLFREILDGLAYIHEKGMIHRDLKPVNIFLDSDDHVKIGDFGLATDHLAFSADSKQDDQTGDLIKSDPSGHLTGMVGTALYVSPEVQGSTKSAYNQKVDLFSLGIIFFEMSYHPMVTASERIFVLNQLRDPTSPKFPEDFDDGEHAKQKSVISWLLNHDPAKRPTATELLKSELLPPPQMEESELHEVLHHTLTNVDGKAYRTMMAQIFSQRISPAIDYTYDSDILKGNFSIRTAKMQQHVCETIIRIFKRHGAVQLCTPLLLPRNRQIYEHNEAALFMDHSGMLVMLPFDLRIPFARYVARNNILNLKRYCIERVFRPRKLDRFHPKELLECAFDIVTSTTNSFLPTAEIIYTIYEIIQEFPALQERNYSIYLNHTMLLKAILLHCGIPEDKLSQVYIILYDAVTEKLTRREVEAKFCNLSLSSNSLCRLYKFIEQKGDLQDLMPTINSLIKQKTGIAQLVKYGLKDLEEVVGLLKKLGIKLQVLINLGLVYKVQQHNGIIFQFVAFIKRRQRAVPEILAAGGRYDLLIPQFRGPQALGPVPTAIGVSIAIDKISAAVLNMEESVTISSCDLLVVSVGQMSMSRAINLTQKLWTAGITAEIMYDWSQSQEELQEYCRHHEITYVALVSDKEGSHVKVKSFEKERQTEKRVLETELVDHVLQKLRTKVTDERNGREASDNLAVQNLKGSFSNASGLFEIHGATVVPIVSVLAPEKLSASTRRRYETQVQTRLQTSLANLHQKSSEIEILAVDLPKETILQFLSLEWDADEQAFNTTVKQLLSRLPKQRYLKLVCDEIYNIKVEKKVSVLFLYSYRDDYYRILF
GCN2 kinase, sequence (Q9P2K8 whole entry): as above

What is called IC50 is the point on the concentration scale where inhibition reaches its midpoint. On to `CC1CC(CS(C)(=N)=O)C(C)N(c2ccnc(-c3cnc4ccc(Cl)cn34)n2)C1` (stereo not shown) [I-46, ((1-(2-(6-Chloroimidazo[1,2-a]pyridin-3-yl)pyrimidin-4-yl)-2,5-dimethylpiperidin-3-yl)methyl)(imino)(methyl)-λ^6-sulfanone], for which the Ki at GCN2 kinase fell in the range of 10 to 100 nM. The IC50 in assay [1] is 500 to 5000 nM.

Molecule `CS(=O)(=O)NC[C@@H]1CN(c2ccnc(-c3cnc4ccc(C(F)F)cn34)n2)CCO1` [I-13, N-[[(2S)-4-[2-[6-(Difluoromethyl)imidazo[1,2-a]pyridin-3-yl]pyrimidin-4-yl]morpholin-2-yl]methyl]methanesulfonamide] came in with a Ki on GCN2 kinase of less than 10 nM. In addition, in assay [1], the half-maximal inhibitory concentration (IC50) was 500 to 5000 nM.

As for `CS(=O)(=O)NC1CC(C(F)(F)F)CN(c2ccnc(-c3cnc4ccc(C(F)(F)F)cn34)n2)C1` (stereo not shown) [I-478, N-(5-(trifluoromethyl)-1-(2-(6-(trifluoromethyl)imidazo[1,2-a]pyridin-3-yl)pyrimidin-4-yl)piperidin-3-yl)methanesulfonamide], the IC50 against GCN2 kinase was 10 to 100 nM; in assay [1], less than 500 nM.

`CS(=O)(=O)NCC1CCN(c2ccnc(-c3cnc4cc(F)c(Br)cn34)n2)C1` (stereo not shown) [I-25, N-[[1-[2-(6-Bromo-7-fluoro-imidazo[1,2-a]pyridin-3-yl)pyrimidin-4-yl]pyrrolidin-3-yl]methyl]methanesulfonamide] showed a Ki at GCN2 kinase of less than 10 nM. Besides, in assay [1], the IC50 fell in the range of 500 to 5000 nM.

Consider `FC(F)(F)c1ccc2ncc(-c3ccnc(N4CCOC(c5cn[nH]c5)C4)n3)n2c1` (stereo not shown) [I-9, 2-(1H-Pyrazol-4-yl)-4-(4-(6-(trifluoromethyl)imidazo[1,2-a]pyridin-3-yl)pyrimidin-2-yl)morpholine], for which the Ki at GCN2 kinase is less than 10 nM. In addition, the half-maximal inhibitory concentration (IC50) in assay [1] is less than 500 nM.

At GCN2 kinase, `CS(=O)(=O)NC[C@@H]1CN(c2nsc(-c3cnc4ccc(C(F)(F)F)cn34)n2)CCO1` [I-109, (S)—N-((4-(5-(6-(trifluoromethyl)imidazo[1,2-a]pyridin-3-yl)-1,2,4-thiadiazol-3-yl)morpholin-2-yl)methyl)methanesulfonamide] yielded a Ki of 10 to 100 nM. Also, in assay [1], the concentration for half-maximal inhibition (IC50) is 500 to 5000 nM.

For `CS(=O)(=O)NC[C@@H]1CN(c2cncc(-c3cnc4ccc(Cl)cn34)n2)CCO1` [I-113, (S)—N-((4-(6-(6-chloroimidazo[1,2-a]pyridin-3-yl)pyrazin-2-yl)morpholin-2-yl)methyl)methanesulfonamide], on GCN2 kinase, the Ki is less than 10 nM. The IC50 in assay [1] was in the range of 500 to 5000 nM.

Regarding `Cc1cnc(N2C[C@H](C)C[C@@H](c3cn[nH]c3)C2)nc1-c1cnc2ccc(Cl)cn12` (stereo in doubt) [I-184, 6-chloro-3-(5-methyl-2-((3R,5S)-3-methyl-5-(1H-pyrazol-4-yl)piperidin-1-yl)pyrimidin-4-yl)imidazo[1,2-a]pyridine], the half-inhibitory concentration (IC50) against GCN2 kinase was 10 to 100 nM; in assay [1], less than 500 nM.

In the case of `CC(C)(C)OC(=O)N1CC2(CCCN(c3ccnc(-c4cnc5ccc(Cl)cn45)n3)C2)C1` [I-285, tert-butyl 6-(2-(6-chloroimidazo[1,2-a]pyridin-3-yl)pyrimidin-4-yl)-2,6-diazaspiro[3.5]nonane-2-carboxylate], the IC50 against GCN2 kinase is 100 to 1000 nM; in assay [1] it was 500 to 5000 nM.

Consider `CC(O)C(=O)N1CCN(c2ccnc(-c3cnc4ccc(C(F)(F)F)cn34)n2)CC1c1cn[nH]c1` (stereo not shown) [I-420, 1-(2-(1H-pyrazol-4-yl)-4-(2-(6-(trifluoromethyl)imidazo[1,2-a]pyridin-3-yl)pyrimidin-4-yl)piperazin-1-yl)-2-hydroxypropan-1-one], for which the IC50 is 10 to 100 nM on GCN2 kinase and 500 to 5000 nM in assay [1].

Regarding `C[C@@H]1C[C@@H](c2cn[nH]c2)CN(c2nccc(-c3cnc4ccc(C5CC5)cn34)n2)C1` [I-236, 6-cyclopropyl-3-(2-((3R,5S)-3-methyl-5-(1H-pyrazol-4-yl)piperidin-1-yl)pyrimidin-4-yl)imidazo[1,2-a]pyridine], the half-inhibitory concentration (IC50) against GCN2 kinase was 10 to 100 nM; in assay [1], less than 500 nM.
